Data on four molecules can be found in ChEMBL document CHEMBL1201862, “PubChem BioAssay data set” (2004).

Among the test systems are SW-620; UACC-257; SR; OVCAR-4; MDA-MB-231; HCT-116; MCF7; NCI/ADR-RES; MDA-N; NCI-H23; RPMI-8226; MDA-MB-435; EKVX; RXF 393; BT-549; SN12C; Hs-578T.
Holding throughout (assay): NCI anticancer screen, dose series, 48 h

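Dose response: 5 concentrations. Exposure: 48 h. Format: 96-well plates. Endpoint: linear interpolation; highest concentration if not reached. Abbreviation: GI50, concentration required for 50% inhibition of growth.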 The source made the active and inactive calls. Cut-off read from the data, not from the text of the source: active = GI50 up to about 1.1 µM and inactive = higher.

As for `Cc1c2oc3c(C)cnc(C(=O)NC4C(=O)NC(C(C)C)C(=O)N5CCCC5C(=O)N(C)CC(=O)N(C)C(C(C)C)C(=O)OC4C)c3nc-2c(C(=O)NC2C(=O)NC(C(C)C)C(=O)N3CCCC3C(=O)N(C)CC(=O)N(C)C(C(C)C)C(=O)OC2C)c(N)c1=O` (stereo not drawn), the GI50 was 0.346 µM (active) with SW-620; 4.58 µM (inactive) in the assay on UACC-257; 0.575 µM (active) with SR; 10.8 µM (inactive) in the assay on OVCAR-4; 9.77 µM (inactive) in the assay with MDA-MB-231; 0.396 µM (active) with HCT-116. The GI50 in the assay on MCF7 is 0.805 µM (active); with NCI/ADR-RES it was > 61 µM (inactive); in the assay with MDA-N, 0.979 µM (active); in the assay with NCI-H23, 3.24 µM (inactive); with RPMI-8226, 0.211 µM (active); with MDA-MB-435 it was 2.74 µM (inactive). Further, the GI50 was 15.4 µM (inactive) in the assay on EKVX; 1.12 µM (active) with RXF 393; 7.62 µM (inactive) in the assay with BT-549; 1.36 µM (inactive) with SN12C; 1.88 µM (inactive) with Hs-578T.
Regarding `COc1ccc(/C=C2\C[C@H]3[C@@H]4CCC5=C/C(=N/O)CC[C@]5(C)[C@H]4CC[C@]3(C)\C2=N\O)cc1`, the GI50 in the assay with SW-620 is 36.9 µM (inactive); with UACC-257, 30.1 µM (inactive); in the assay with SR, 3.99 µM (inactive); with OVCAR-4 it was 25.7 µM (inactive); in the assay on MDA-MB-231, 31.6 µM (inactive); in the assay on HCT-116, 5.21 µM (inactive). Moreover, the GI50 in the assay on MCF7 is 5.01 µM (inactive); with NCI/ADR-RES, 8.18 µM (inactive); in the assay on MDA-N it was 15.6 µM (inactive); in the assay with NCI-H23 it was 19.5 µM (inactive); with RPMI-8226, 5.12 µM (inactive); with MDA-MB-435, 26.5 µM (inactive). The GI50 with EKVX was 12.5 µM (inactive); with RXF 393 it was 7.1 µM (inactive); in the assay with BT-549 it was 15.9 µM (inactive); in the assay on SN12C, 14.1 µM (inactive); with Hs-578T it was 28.5 µM (inactive).
Turning to `C[C@H](CCC(=O)O)[C@H]1CC[C@H]2[C@@H]3[C@@H](O)C[C@@H]4C[C@H](O)CC[C@]4(C)[C@H]3CC[C@]12C`, the GI50 was > 100 µM (inactive) in the assay on SW-620; 92.9 µM (inactive) in the assay with UACC-257; 47.8 µM (inactive) in the assay on SR; > 100 µM (inactive) with OVCAR-4; > 100 µM (inactive) in the assay on MDA-MB-231; 61.7 µM (inactive) in the assay with HCT-116. Moreover, the GI50 was 86.7 µM (inactive) with MCF7; 38.7 µM (inactive) with NCI/ADR-RES; > 100 µM (inactive) in the assay with MDA-N; 65.2 µM (inactive) with NCI-H23; 38.1 µM (inactive) in the assay on RPMI-8226; > 100 µM (inactive) in the assay with MDA-MB-435. The GI50 with EKVX is > 100 µM (inactive); in the assay with RXF 393, > 100 µM (inactive); in the assay on BT-549 it was 38.8 µM (inactive); in the assay on SN12C, > 100 µM (inactive); in the assay on Hs-578T, 59.8 µM (inactive).
Turning to `CCOC(=O)C(NCc1ccc2c(c1)OCO2)(NC(=O)c1ccccc1)C(F)(F)F` (stereo not drawn), the GI50 is > 100 µM (inactive) with SW-620; > 100 µM (inactive) with UACC-257; 36 µM (inactive) in the assay with SR; 76.7 µM (inactive) in the assay with OVCAR-4; 64.4 µM (inactive) in the assay with MDA-MB-231; 89.1 µM (inactive) in the assay with HCT-116. Moreover, the GI50 is 60.3 µM (inactive) with MCF7; 46.2 µM (inactive) with NCI/ADR-RES; > 100 µM (inactive) in the assay on MDA-N; 62.2 µM (inactive) in the assay on NCI-H23; 34.7 µM (inactive) in the assay with RPMI-8226; > 100 µM (inactive) with MDA-MB-435. Also, the GI50 is 86.1 µM (inactive) in the assay with EKVX; > 100 µM (inactive) in the assay with RXF 393; > 100 µM (inactive) with BT-549; > 100 µM (inactive) in the assay on SN12C; > 100 µM (inactive) in the assay on Hs-578T.
